Values of other authors in publication PMC8513935.

Legend:
[1] = log P octanol/water from commercial databases, averaged (the ESI); settings: Octanol (wet), 25 C
[2] = experimental, compiled by the authors from the literature (the ESI cites the sources)
[3] = derived by the authors as gas->solvent minus gas->water (a hypothetical dry solvent; the ESI), not a two-phase measurement

For `CCCCC(C)=O`, the log K of transfer, water to solvent [1] is given as 1.38 log10 K, the log K of transfer, gas to solvent ([2]; Benzene, 25 C) is given as 4.22 log10 K and the log K of transfer, gas to solvent ([2]; CCl4, 25 C) is given as 3.93 log10 K. For the same molecule, the log K of transfer, gas to solvent ([2]; Chlorobenzene, 25 C) was 4.28 log10 K, the log K of transfer, gas to solvent ([2]; Cyclohexane, 25 C) was 3.42 log10 K and the log K of transfer, gas to solvent ([2]; Hexadecane, 25 C) was 3.28 log10 K. For the same molecule, the log K of transfer, gas to solvent ([2]; Hexane, 25 C) was 3.43 log10 K, the log K of transfer, gas to solvent ([2]; Methanol, 25 C) was 3.82 log10 K and the log K of transfer, gas to solvent ([2]; Octan-1-ol, 25 C) was 3.68 log10 K. For the same molecule, the log K of transfer, gas to solvent ([2]; Toluene, 25 C) was 4.11 log10 K, the log K of transfer, gas to solvent ([2]; Water, 25 C) was 2.41 log10 K and the log K of transfer, water to solvent ([3]; Benzene, 25 C) was 1.81 log10 K. The log K of transfer, water to solvent ([3]; CCl4, 25 C) was 1.52 log10 K, the log K of transfer, water to solvent ([3]; Chlorobenzene, 25 C) was 1.87 log10 K and the log K of transfer, water to solvent ([3]; Cyclohexane, 25 C) was 1.02 log10 K. The log K of transfer, water to solvent ([3]; Hexadecane, 25 C) was 0.876 log10 K, the log K of transfer, water to solvent ([3]; Hexane, 25 C) was 1.02 log10 K and the log K of transfer, water to solvent ([3]; Methanol, 25 C) was 1.41 log10 K. For the same molecule, the log K of transfer, water to solvent ([3]; Octan-1-ol(dry), 25 C) was 1.27 log10 K and the log K of transfer, water to solvent ([3]; Toluene, 25 C) was 1.7 log10 K.
For `CCCC(C)O` (centres unmarked), the log K of transfer, water to solvent [1] is listed as 1.25 log10 K, the log K of transfer, gas to solvent ([2]; 1,2-Dichloroethane, 25 C) is listed as 4 log10 K and the log K of transfer, gas to solvent ([2]; CCl4, 25 C) is listed as 3.45 log10 K. The log K of transfer, gas to solvent ([2]; Hexadecane, 25 C) was 2.84 log10 K, the log K of transfer, gas to solvent ([2]; Water, 25 C) was 3.22 log10 K and the log K of transfer, water to solvent ([3]; 1,2-Dichloroethane, 25 C) was 0.78 log10 K. The log K of transfer, water to solvent ([3]; CCl4, 25 C) was 0.23 log10 K and the log K of transfer, water to solvent ([3]; Hexadecane, 25 C) was -0.38 log10 K.
For `CCCNCCC`, the log K of transfer, water to solvent [1] is listed as 1.67 log10 K, the log K of transfer, gas to solvent ([2]; Benzene, 25 C) is listed as 3.73 log10 K and the log K of transfer, gas to solvent ([2]; Hexadecane, 25 C) is listed as 3.35 log10 K. The log K of transfer, gas to solvent ([2]; Toluene, 25 C) was 3.84 log10 K, the log K of transfer, gas to solvent ([2]; Water, 25 C) was 2.68 log10 K and the log K of transfer, water to solvent ([3]; Benzene, 25 C) was 1.05 log10 K. For the same molecule, the log K of transfer, water to solvent ([3]; Hexadecane, 25 C) was 0.671 log10 K and the log K of transfer, water to solvent ([3]; Toluene, 25 C) was 1.16 log10 K.
In the case of `Cc1ccc(O)cc1`, the log K of transfer, water to solvent [1] is listed as 1.97 log10 K, the log K of transfer, gas to solvent ([2]; 1,2-Dichloroethane, 25 C) is listed as 5.68 log10 K and the log K of transfer, gas to solvent ([2]; Benzene, 25 C) is listed as 5.39 log10 K. For the same molecule, the log K of transfer, gas to solvent ([2]; CCl4, 25 C) was 4.72 log10 K, the log K of transfer, gas to solvent ([2]; Chlorobenzene, 25 C) was 5.3 log10 K and the log K of transfer, gas to solvent ([2]; Chloroform, 25 C) was 5.56 log10 K. For the same molecule, the log K of transfer, gas to solvent ([2]; Cyclohexane, 25 C) was 4.36 log10 K, the log K of transfer, gas to solvent ([2]; Dichloromethane, 25 C) was 5.65 log10 K and the log K of transfer, gas to solvent ([2]; Hexadecane, 25 C) was 4.31 log10 K. The log K of transfer, gas to solvent ([2]; Hexane, 25 C) was 4.16 log10 K, the log K of transfer, gas to solvent ([2]; Perfluoroalkane, 25 C) was 2.67 log10 K and the log K of transfer, gas to solvent ([2]; Water, 25 C) was 4.5 log10 K. For the same molecule, the log K of transfer, water to solvent ([3]; 1,2-Dichloroethane, 25 C) was 1.18 log10 K, the log K of transfer, water to solvent ([3]; Benzene, 25 C) was 0.89 log10 K and the log K of transfer, water to solvent ([3]; CCl4, 25 C) was 0.22 log10 K. The log K of transfer, water to solvent ([3]; Chlorobenzene, 25 C) was 0.8 log10 K, the log K of transfer, water to solvent ([3]; Chloroform, 25 C) was 1.06 log10 K and the log K of transfer, water to solvent ([3]; Cyclohexane, 25 C) was -0.14 log10 K. For the same molecule, the log K of transfer, water to solvent ([3]; Dichloromethane, 25 C) was 1.15 log10 K, the log K of transfer, water to solvent ([3]; Hexadecane, 25 C) was -0.188 log10 K and the log K of transfer, water to solvent ([3]; Hexane, 25 C) was -0.34 log10 K. The log K of transfer, water to solvent ([3]; Perfluoroalkane, 25 C) was -1.83 log10 K.
For `CCCC(C)C`, the log K of transfer, water to solvent [1] is given as 3.73 log10 K, the log K of transfer, gas to solvent ([2]; 1,2-Dichloroethane, 25 C) is given as 2.34 log10 K and the log K of transfer, gas to solvent ([2]; Acetonitrile, 25 C) is given as 1.82 log10 K. The log K of transfer, gas to solvent ([2]; Butan-1-ol, 25 C) was 2.29 log10 K, the log K of transfer, gas to solvent ([2]; Butanone, 25 C) was 2.39 log10 K and the log K of transfer, gas to solvent ([2]; Butyronitrile, 25 C) was 2.21 log10 K. The log K of transfer, gas to solvent ([2]; CCl4, 25 C) was 2.81 log10 K, the log K of transfer, gas to solvent ([2]; Chlorobenzene, 25 C) was 2.78 log10 K and the log K of transfer, gas to solvent ([2]; Chloroform, 25 C) was 2.71 log10 K. For the same molecule, the log K of transfer, gas to solvent ([2]; Cyclohexanone, 25 C) was 2.3 log10 K, the log K of transfer, gas to solvent ([2]; Dichloromethane, 25 C) was 2.59 log10 K and the log K of transfer, gas to solvent ([2]; Ethanol, 25 C) was 2.16 log10 K. The log K of transfer, gas to solvent ([2]; Hexadecane, 25 C) was 2.5 log10 K, the log K of transfer, gas to solvent ([2]; Hexane, 25 C) was 2.82 log10 K and the log K of transfer, gas to solvent ([2]; Methanol, 25 C) was 1.95 log10 K. For the same molecule, the log K of transfer, gas to solvent ([2]; Pentan-1-ol, 25 C) was 2.42 log10 K, the log K of transfer, gas to solvent ([2]; Perfluoroalkane, 25 C) was 1.81 log10 K and the log K of transfer, gas to solvent ([2]; Propan-1-ol, 25 C) was 2.15 log10 K. The log K of transfer, gas to solvent ([2]; Propan-2-ol, 25 C) was 2.16 log10 K, the log K of transfer, gas to solvent ([2]; Propanone, 25 C) was 2.24 log10 K and the log K of transfer, gas to solvent ([2]; Propionitrile, 25 C) was 2.08 log10 K. The log K of transfer, gas to solvent ([2]; Tetrahydrofuran, 25 C) was 2.7 log10 K, the log K of transfer, gas to solvent ([2]; Toluene, 25 C) was 2.65 log10 K and the log K of transfer, gas to solvent ([2]; Water, 25 C) was -1.84 log10 K. The log K of transfer, water to solvent ([3]; 1,2-Dichloroethane, 25 C) was 4.18 log10 K, the log K of transfer, water to solvent ([3]; Acetone, 25 C) was 4.08 log10 K and the log K of transfer, water to solvent ([3]; Acetonitrile, 25 C) was 3.66 log10 K. The log K of transfer, water to solvent ([3]; Butan-1-ol, 25 C) was 4.13 log10 K, the log K of transfer, water to solvent ([3]; Butanone, 25 C) was 4.23 log10 K and the log K of transfer, water to solvent ([3]; Butyronitrile, 25 C) was 4.05 log10 K. The log K of transfer, water to solvent ([3]; CCl4, 25 C) was 4.65 log10 K, the log K of transfer, water to solvent ([3]; Chlorobenzene, 25 C) was 4.62 log10 K and the log K of transfer, water to solvent ([3]; Chloroform, 25 C) was 4.55 log10 K. The log K of transfer, water to solvent ([3]; Cyclohexanone, 25 C) was 4.14 log10 K, the log K of transfer, water to solvent ([3]; Dichloromethane, 25 C) was 4.43 log10 K and the log K of transfer, water to solvent ([3]; Ethanol, 25 C) was 4 log10 K. The log K of transfer, water to solvent ([3]; Hexadecane, 25 C) was 4.34 log10 K, the log K of transfer, water to solvent ([3]; Hexane, 25 C) was 4.66 log10 K and the log K of transfer, water to solvent ([3]; Methanol, 25 C) was 3.79 log10 K. The log K of transfer, water to solvent ([3]; Pentan-1-ol, 25 C) was 4.26 log10 K, the log K of transfer, water to solvent ([3]; Perfluoroalkane, 25 C) was 3.65 log10 K and the log K of transfer, water to solvent ([3]; Propan-1-ol, 25 C) was 3.99 log10 K. For the same molecule, the log K of transfer, water to solvent ([3]; Propan-2-ol, 25 C) was 4 log10 K, the log K of transfer, water to solvent ([3]; Propionitrile, 25 C) was 3.92 log10 K and the log K of transfer, water to solvent ([3]; Tetrahydrofuran, 25 C) was 4.54 log10 K. The log K of transfer, water to solvent ([3]; Toluene, 25 C) was 4.49 log10 K.
For `OC1CCCCC1`, the log K of transfer, water to solvent [1] is given as 1.23 log10 K, the log K of transfer, gas to solvent ([2]; Chloroform, 25 C) is given as 5.13 log10 K and the log K of transfer, gas to solvent ([2]; Decan-1-ol, 25 C) is given as 5.48 log10 K. The log K of transfer, gas to solvent ([2]; Hexadecane, 25 C) was 3.76 log10 K, the log K of transfer, gas to solvent ([2]; Octan-1-ol, 25 C) was 5.18 log10 K and the log K of transfer, gas to solvent ([2]; Propanone, 25 C) was 5.09 log10 K. For the same molecule, the log K of transfer, gas to solvent ([2]; Water, 25 C) was 4.01 log10 K, the log K of transfer, water to solvent ([3]; Acetone, 25 C) was 1.08 log10 K and the log K of transfer, water to solvent ([3]; Chloroform, 25 C) was 1.12 log10 K. For the same molecule, the log K of transfer, water to solvent ([3]; Decan-1-ol, 25 C) was 1.48 log10 K, the log K of transfer, water to solvent ([3]; Hexadecane, 25 C) was -0.252 log10 K and the log K of transfer, water to solvent ([3]; Octan-1-ol(dry), 25 C) was 1.17 log10 K.
